Experimental data: patent publication US20250197513A1, “OSMR-SPECIFIC MONOCLONAL ANTIBODIES AND METHODS OF THEIR USE” (THE BOARD OF REGENTS OF THE UNIVERSITY OF TEXAS SYSTEM, priority 2021, published 2025)

Tests used:
[1] = test system: A2780-Cis cells; assay: Cell viability, cisplatin 48 h; type: cell-based, human; conditions: cisplatin alone
Experimental: (§1) CCK8 cell viability assay: One thousand cells were seeded each well in 96-well plates. Following treatment for 48 h, the cells were washed with PBS and incubated for 4 h with CCK8 reagent at 37° C. in 5% CO2 incubator according to manufacturer's guidelines. The absorbance was measured at 460 nm.

[2] = test system: SL3 cells; assay: Cell viability, cisplatin 48 h; type: cell-based, human; conditions: cisplatin alone
Experimental: as §1

[3] = test system: SL-3-Cis cells; assay: Cell viability, cisplatin 48 h; type: cell-based, human; conditions: cisplatin alone
Experimental: as §1

[4] = test system: A2780 ovarian cancer; assay: In vivo, intraperitoneal A2780-sensitive luciferase tumors; set-up: species or system athymic nude mice; conditions: single agent, mice stimulated with OSM; cisplatin 5 mg/kg biweekly
[5] = test system: A2780 cells; assay: Cell viability, cisplatin 48 h; type: cell-based, human; conditions: cisplatin alone
Experimental: as §1

[6] = test system: OVCAR8 cells; assay: Cell viability, cisplatin 48 h; type: cell-based, human; conditions: cisplatin alone
Experimental: as §1

[7] = test system: A2780-CP tumors; assay: In vivo, intraperitoneal A2780-cisplatin resistant luciferase tumors; set-up: species or system athymic nude mice; conditions: cisplatin alone, 5 mg/kg biweekly
[8] = test system: OVCAR8-Cis cells; assay: Cell viability, cisplatin 48 h; type: cell-based, human; conditions: cisplatin alone
Experimental: as §1

N.N.[Cl][Pt][Cl] [cisplatin]
IC50 [1]: 10.4 µM | IC50 [2]: 1210 nM | IC50 [3]: 7.37 µM | growth of A2780 ovarian cancer (bioluminescence) [4]: reduced the growth | IC50 [5]: 2040 nM | IC50 [6]: 1740 nM | growth and metastasis of A2780-CP tumors [7]: did not inhibit the growth and metastasis | IC50 [8]: 13.6 µM
